Laboratory results as given in US20220233468A1 (priority 2021, published 2022).
Where two headings read alike, the source gives them in different places.

Assays:
Experiment in all cases: microbe, parasite or virus in culture
Format in all cases: cell-based
[1] = test system: pseudovirions harboring S protein from SARS-CoV-2 Alpha variant (B.1.1.7); details: for EC50: Severe acute respiratory syndrome coronavirus 2
[2] = test system: pseudovirions harboring S protein from SARS-CoV-2 Delta variant (B.1.617.2); details: for EC50: Severe acute respiratory syndrome coronavirus 2
[3] = test system: pseudovirions harboring S protein from SARS-CoV-2 Beta variant (B.1.351); details: for EC50: Severe acute respiratory syndrome coronavirus 2
[4] = test system: pseudovirions harboring S protein from SARS-CoV-2 Gamma variant (P.1); details: Severe acute respiratory syndrome coronavirus 2
[5] = read-out: EC50, inhibition of cellular entry of pseudovirions, Gamma variant

| SMILES | inhibition of cellular entry of pseudovirions with Spike variants (in words), Alpha variant [1] | inhibition of cellular entry of pseudovirions with Spike variants (in words), Delta variant [2] | inhibition of cellular entry of pseudovirions with Spike variants (in words), Beta variant [3] | EC50 [4, 5] [µM] | EC50 ([1]; read-out: EC50, inhibition of cellular entry of pseudovirions, Alpha variant) [µM] | EC50 ([1]; read-out: EC50, prophylactic inhibition of cellular entry of pseudovirions, Alpha variant) [µM] | EC50 ([2]; read-out: EC50, inhibition of cellular entry of pseudovirions, Delta variant) [µM] | EC50 ([2]; read-out: EC50, prophylactic inhibition of cellular entry of pseudovirions, Delta variant) [µM] | EC50 ([3]; read-out: EC50, inhibition of cellular entry of pseudovirions, Beta variant) [µM] | EC50 ([3]; read-out: EC50, prophylactic inhibition of cellular entry of pseudovirions, Beta variant) [µM] | EC50 ([4]; read-out: EC50, prophylactic inhibition of cellular entry of pseudovirions, Gamma variant) [µM] |
| --- | --- | --- | --- | --- | --- | --- | --- | --- | --- | --- | --- |
| COc1ccc(/C=C/C(=O)C(F)(CC2CCC2)C(=O)/C=C/c2ccc(OC)c(OC)c2)cc1OC [Compound A, 4-fluoro-4-cyclobutylmethyl-1,7-bis(3,4-dimethoxyphenyl)hepta-1,6-diene-3,5-dione] | showed inhibition of cellular entry | showed inhibition of cellular entry | showed inhibition of cellular entry | ~4 |  |  |  |  |  |  |  |
| COc1ccc(/C=C/C(=O)C(CC2CCC2)C(=O)/C=C/c2ccc(OC)c(OC)c2)cc1OC [Compound B, 4-(cyclobutylmethyl)-1,7-bis(3,4-dimethoxyphenyl)hepta-1,6-diene-3,5-dione] |  |  |  | ~4.7 | ~4.4 | ~3.2 | ~4.9 | ~3.8 | ~4.7 | ~3.3 | ~3.6 |
